In brackets after ≈: the same amount, converted by molar mass.
Experiments:
Enterococcus faecalis = assay: MIC by microdilution in Mueller-Hinton broth against Enterococcus faecalis strains; type: cell-based
Bifidobacterium strains = assay: MIC by microdilution in BHI broth against Bifidobacterium strains; type: cell-based, Bifidobacterium spp.; details: BHI broth
Enterococci faecium = assay: MIC by microdilution in Mueller-Hinton broth against Enterococci faecium strains; type: cell-based, Enterococcus faecium; details: Mueller-Hinton broth
Escherichia coli strains = assay: MIC by microdilution in Mueller-Hinton broth against Escherichia coli strains; type: cell-based; details: for MIC: Mueller-Hinton broth
[1] = test system: Lachnospiraceae and related bacterial strains; assay: MIC against Lachnospiraceae and related bacterial strains; type: cell-based, Lachnospiraceae spp.; details: broth microdilution, brucella broth
[2] = test system: Staphylococcus aureus strains; assay: MIC by microdilution in Mueller-Hinton broth against Staphylococcus aureus strains; type: cell-based
Fusobacterium = assay: MIC by microdilution in Brucella broth against Fusobacterium; type: cell-based, Fusobacterium spp.; details: Brucella broth
[3] = test system: Clostridium difficile (CD) strains; assay: microbe, parasite or virus in culture; type: cell-based
Bacteroides Strains = assay: MIC by microdilution in Brucella broth against Bacteroides strains; type: cell-based, Bacteroides spp.
C. perfringens MH310 = assay: microbe, parasite or virus in culture; type: cell-based; details: C. perfringens MH310

SMILES: CCN=c1cc2n(-c3ccc(Cl)cc3)c3ccccc3nc-2cc1Nc1ccc(Cl)cc1 [B746]
- MIC (Enterococcus faecalis; E. faecalis NR 31884): 4 µg/mL (≈ 8.71 µM)
- MIC (Enterococcus faecalis; E. faecalis NR 31885): 4 µg/mL (≈ 8.71 µM)
- MIC (Enterococcus faecalis; E. faecalis NR 31886): 8 µg/mL (≈ 17.4 µM)
- MIC (Enterococcus faecalis; E. faecalis NR 31887): 4 µg/mL (≈ 8.71 µM)
- MIC (Enterococcus faecalis; E. faecalis NR 31888): 8 µg/mL (≈ 17.4 µM)
- MIC (Bifidobacterium strains; Bifidobacterium adolescentis HM-633): 2 µg/mL (≈ 4.35 µM)
- MIC (Bifidobacterium strains; Bifidobacterium breve HM-411): 4 µg/mL (≈ 8.71 µM)
- MIC (Bifidobacterium strains; Bifidobacterium breve HM-412): 4 µg/mL (≈ 8.71 µM)
- MIC (Bifidobacterium strains; Bifidobacterium breve HM-856): 32 µg/mL (≈ 69.7 µM)
- MIC (Bifidobacterium strains; Bifidobacterium breve HM-1120): >32 µg/mL
- MIC (Bifidobacterium strains; Bifidobacterium longum HM-845): 2 µg/mL (≈ 4.35 µM)
- MIC (Bifidobacterium strains; Bifidobacterium longum HM-846): 2 µg/mL (≈ 4.35 µM)
- MIC (Bifidobacterium strains; Bifidobacterium longum HM-847): 2 µg/mL (≈ 4.35 µM)
- MIC (Bifidobacterium strains; Bifidobacterium sp. HM-30): 1 µg/mL (≈ 2.18 µM)
- MIC (Bifidobacterium strains; Bifidobacterium sp. HM-868): 2 µg/mL (≈ 4.35 µM)
- MIC (Enterococci faecium; E. faecium NR 31903): 2 µg/mL (≈ 4.35 µM)
- MIC (Enterococci faecium; E. faecium NR 31909): 2 µg/mL (≈ 4.35 µM)
- MIC (Enterococci faecium; E. faecium NR 31912): 2 µg/mL (≈ 4.35 µM)
- MIC (Enterococci faecium; E. faecium NR 31915): 2 µg/mL (≈ 4.35 µM)
- MIC (Enterococci faecium; E. faecium NR 31916): 2 µg/mL (≈ 4.35 µM)
- activity against E. coli (in words) (Escherichia coli strains): relatively inactive
- MIC (Escherichia coli strains; Escherichia coli strain NR 6): >32 µg/mL
- MIC (Escherichia coli strains; Escherichia coli strain NR 8): >32 µg/mL
- MIC (Escherichia coli strains; Escherichia coli strain NR 96): >32 µg/mL
- MIC (Escherichia coli strains; Escherichia coli strain NR 104): >32 µg/mL
- MIC (Escherichia coli strains; Escherichia coli strain NR 17626): >32 µg/mL
- MIC (Escherichia coli strains; Escherichia coli strain NR 17627): >32 µg/mL
- MIC (Escherichia coli strains; Escherichia coli strain NR 17633): >32 µg/mL
- MIC (Escherichia coli strains; Escherichia coli strain NR 17647): >32 µg/mL
- MIC (Escherichia coli strains; Escherichia coli strain NR 17650): >32 µg/mL
- MIC (Escherichia coli strains; Escherichia coli strain NR 17661): >32 µg/mL
- MIC ([1]; Clostridiales bacterium HM-84): 0.062 µg/mL (≈ 0.135 µM)
- MIC ([1]; Clostridiales bacterium HM-182): 1 µg/mL (≈ 2.18 µM)
- MIC ([1]; Eubacterium sp. HM-178): 0.5 µg/mL (≈ 1.09 µM)
- MIC ([1]; Lachnospiraceae sp. HM-7): ≦0.031 μg/ml
- MIC ([1]; Lachnospiraceae sp. HM-150): 0.5 µg/mL (≈ 1.09 µM)
- MIC ([1]; Lachnospiraceae sp. HM-153): 0.5 µg/mL (≈ 1.09 µM)
- MIC ([1]; Lachnospiraceae sp. HM-154): 0.5 µg/mL (≈ 1.09 µM)
- MIC ([1]; Lachnospiraceae sp. HM-157): 0.5 µg/mL (≈ 1.09 µM)
- MIC ([1]; Lachnospiraceae sp. HM-161): 0.25 µg/mL (≈ 0.544 µM)
- MIC ([1]; Lachnospiraceae sp. HM-480): 0.125 µg/mL (≈ 0.272 µM)
- MIC ([1]; Lachnospiraceae sp. HM-558): 0.125 µg/mL (≈ 0.272 µM)
- MIC ([1]; Lachnospiraceae sp. HM-768): ≦0.031 μg/ml
- MIC ([1]; Lachnospiraceae sp. HM-868): 2 µg/mL (≈ 4.35 µM)
- MIC ([1]; Peptostreptococcaceae sp. HM-766): 1 µg/mL (≈ 2.18 µM)
- MIC ([2]; Staphylococcus aureus strain NR 10129): 4 µg/mL (≈ 8.71 µM)
- MIC ([2]; Staphylococcus aureus strain NR 10186): 2 µg/mL (≈ 4.35 µM)
- MIC ([2]; Staphylococcus aureus strain NR 10187): 4 µg/mL (≈ 8.71 µM)
- MIC ([2]; Staphylococcus aureus strain NR 10188): 4 µg/mL (≈ 8.71 µM)
- MIC ([2]; Staphylococcus aureus strain NR 10189): 4 µg/mL (≈ 8.71 µM)
- MIC ([2]; Staphylococcus aureus strain NR 10191): 4 µg/mL (≈ 8.71 µM)
- MIC ([2]; Staphylococcus aureus strain NR 10192): 4 µg/mL (≈ 8.71 µM)
- MIC ([2]; Staphylococcus aureus strain NR 10193): 4 µg/mL (≈ 8.71 µM)
- MIC ([2]; Staphylococcus aureus strain NR 10194): 4 µg/mL (≈ 8.71 µM)
- MIC ([2]; Staphylococcus aureus strain NR 10198): 16 µg/mL (≈ 34.8 µM)
- MIC (Fusobacterium; F. nucleatum HM-75): 16 µg/mL (≈ 34.8 µM)
- MIC (Fusobacterium; F. nucleatum HM-260): >32 µg/mL
- MIC (Fusobacterium; F. nucleatum HM-992): 16 µg/mL (≈ 34.8 µM)
- MIC (Fusobacterium; F. nucleatum HM-993): 2 µg/mL (≈ 4.35 µM)
- MIC (Fusobacterium; F. nucleatum HM-994): 8 µg/mL (≈ 17.4 µM)
- MIC (Fusobacterium; F. nucleatum HM-995): 16 µg/mL (≈ 34.8 µM)
- MIC (Fusobacterium; F. nucleatum HM-996): 32 µg/mL (≈ 69.7 µM)
- MIC (Fusobacterium; F. nucleatum HM-997): 16 µg/mL (≈ 34.8 µM)
- MIC (Fusobacterium; Fusobacterium sp. HM 42): >32 µg/mL
- MIC (Fusobacterium; Fusobacterium sp. HM 57): >32 µg/mL
- MIC (Fusobacterium; Fusobacterium sp. HM-556): 8 µg/mL (≈ 17.4 µM)
- MIC (Fusobacterium; Fusobacterium sp. HM-758): >32 µg/mL
- MIC (Fusobacterium; Fusobacterium sp. HM-871): 8 µg/mL (≈ 17.4 µM)
- MIC (Fusobacterium; Fusobacterium sp. HM-874): 16 µg/mL (≈ 34.8 µM)
- MIC (Fusobacterium; Fusobacterium sp. HM-875): 8 µg/mL (≈ 17.4 µM)
- antibacterial activity against CD, fold greater than MET [3]: 16 fold
- antibacterial activity against CD, fold greater than VAN [3]: 8 fold
- MIC ([3]; CD strain BAA1805 (hyper-virulent strain BI/NAP1/027), BB): 0.25 µg/mL (≈ 0.544 µM)
- MIC50 ([3]; n = 37): 0.125 µg/mL (≈ 0.272 µM)
- MIC90 ([3]; n = 37): 0.25 µg/mL (≈ 0.544 µM)
- MIC Range ([3]; n = 37): ≦0.031-0.5 μg/ml
- MIC (Bacteroides Strains; B. caccae HM728): 1 µg/mL (≈ 2.18 µM)
- MIC (Bacteroides Strains; B. eggerthii HM210): 2 µg/mL (≈ 4.35 µM)
- MIC (Bacteroides Strains; B. fragilis HM709): 4 µg/mL (≈ 8.71 µM)
- MIC (Bacteroides Strains; B. fragilis HM710): 2 µg/mL (≈ 4.35 µM)
- MIC (Bacteroides Strains; B. fragilis HM714): 4 µg/mL (≈ 8.71 µM)
- MIC (Bacteroides Strains; B. ovatus HM222): 0.25 µg/mL (≈ 0.544 µM)
- MIC (Bacteroides Strains; B. spp. HM18): 1 µg/mL (≈ 2.18 µM)
- MIC (Bacteroides Strains; B. spp. HM19): 2 µg/mL (≈ 4.35 µM)
- MIC (Bacteroides Strains; B. spp. HM20): 1 µg/mL (≈ 2.18 µM)
- MIC (Bacteroides Strains; B. spp. HM22): 1 µg/mL (≈ 2.18 µM)
- MIC (Bacteroides Strains; B. spp. HM23): 2 µg/mL (≈ 4.35 µM)
- MIC (Bacteroides Strains; B. spp. HM27): 1 µg/mL (≈ 2.18 µM)
- MIC (Bacteroides Strains; B. spp. HM28): 2 µg/mL (≈ 4.35 µM)
- MIC (Bacteroides Strains; B. spp. HM58): 1 µg/mL (≈ 2.18 µM)
- MIC (Bacteroides Strains; B. stercoris HM1036): 1 µg/mL (≈ 2.18 µM)
- MIC (C. perfringens MH310; BB): 0.5 µg/mL (≈ 1.09 µM)
- MIC (C. perfringens MH310; BHI): 1 µg/mL (≈ 2.18 µM)
